Test results as given in patent US20240398793A1, “Methods of Treating Lymphedema” (Celltaxis, LLC, priority 2021, published 2024).
Where two headings read alike, the source gives them in different places.

Experiments:
[1] = tested on: sputum white blood cells and neutrophils; experiment: Sputum cell counts in CF patients; type: in vivo, human
[2] = tested on: LTB4 production in human whole blood; experiment: LTB4 production in ex vivo stimulated human whole blood; type: cell-based
Source text: The IC50 of LTA4H epoxide hydrolase activity can be measured using methods known in the art, for example, using the LTA4 hydrolase homogenous time resolved fluorescence assay which is described, for example, in U.S. Pat. Nos. 7,737,145 and 10,202,362; the contents of which are expressly incorporated by reference herein. The hydrolase-homogeneous time resolved fluorescence assay is a two-step assay that measures the hydrolysis of LTA4 to LTB4 by analyzing the amount of LTB4 produced. The first step involves the enzymatic conversion of LTA4 to LTB4 and the second step involves the quantification of the LTB4 formed with a homogeneous time resolved fluorescence assay. LTA4H epoxide hydrolase activity can also be measured in a whole blood assay, for example, using human whole blood, using the method described in Penning, T. D. et al., J. Med. Chem. (2000), 43 (4): 721-735 and U.S. Pat. No. 7,737,145; the contents of each of which are expressly incorporated by reference herein. In the whole blood assay, the inhibitor compounds are tested for their ability to inhibit LTB4 release upon stimulation with calcium ionophore and the LTB4 levels in supernatants are measured by ELISA. LTA4H epoxide hydrolase activity can also be measured according to the method described in Low et al. (2017). […]

[3] = tested on: LTB4 production in blood; experiment: Human pharmacodynamic studies, inhibition of LTB4 production in blood; type: in vivo
[4] = Human pharmacokinetics after oral administration; type: in vivo; details: for half-life / Tmax: human, plasma; for half-life: oral, read-out: T1/2 (elimination half-life); for Tmax: po
[5] = Nonclinical pharmacokinetics and mass balance studies; type: in vivo, animals
[6] = tested on: neutrophil swarming; experiment: Neutrophil swarming in vitro in response to CF sputum factors; type: cell-based; details: 48 ng/mL; factors present in human CF sputum
[7] = Long-term animal safety studies; type: in vivo, animals
[8] = Preclinical phototoxicity studies
[9] = target: LTA4H epoxide hydrolase (Homo sapiens (Human), UniProt P09960); details: read-out: LTA4H epoxide hydrolase potency; Bhatt et al. (2017); cited from earlier work
[10] = target: P-glycoprotein (P-gp) (Homo sapiens (Human), UniProt P08183); experiment: In vitro drug interaction study, P-gp; type: in vitro ADME
[11] = Clinical safety and tolerability
[12] = Serious adverse reactions, Phase 2 Acebilustat safety population; type: in vivo, human; details: Phase 2, N = 217
Source text: SARs reported in the completed Phase 2 studies and suspected to be potentially related to drug treatment are tabulated below.

Sequence of P-glycoprotein (P-gp) (P08183 whole entry): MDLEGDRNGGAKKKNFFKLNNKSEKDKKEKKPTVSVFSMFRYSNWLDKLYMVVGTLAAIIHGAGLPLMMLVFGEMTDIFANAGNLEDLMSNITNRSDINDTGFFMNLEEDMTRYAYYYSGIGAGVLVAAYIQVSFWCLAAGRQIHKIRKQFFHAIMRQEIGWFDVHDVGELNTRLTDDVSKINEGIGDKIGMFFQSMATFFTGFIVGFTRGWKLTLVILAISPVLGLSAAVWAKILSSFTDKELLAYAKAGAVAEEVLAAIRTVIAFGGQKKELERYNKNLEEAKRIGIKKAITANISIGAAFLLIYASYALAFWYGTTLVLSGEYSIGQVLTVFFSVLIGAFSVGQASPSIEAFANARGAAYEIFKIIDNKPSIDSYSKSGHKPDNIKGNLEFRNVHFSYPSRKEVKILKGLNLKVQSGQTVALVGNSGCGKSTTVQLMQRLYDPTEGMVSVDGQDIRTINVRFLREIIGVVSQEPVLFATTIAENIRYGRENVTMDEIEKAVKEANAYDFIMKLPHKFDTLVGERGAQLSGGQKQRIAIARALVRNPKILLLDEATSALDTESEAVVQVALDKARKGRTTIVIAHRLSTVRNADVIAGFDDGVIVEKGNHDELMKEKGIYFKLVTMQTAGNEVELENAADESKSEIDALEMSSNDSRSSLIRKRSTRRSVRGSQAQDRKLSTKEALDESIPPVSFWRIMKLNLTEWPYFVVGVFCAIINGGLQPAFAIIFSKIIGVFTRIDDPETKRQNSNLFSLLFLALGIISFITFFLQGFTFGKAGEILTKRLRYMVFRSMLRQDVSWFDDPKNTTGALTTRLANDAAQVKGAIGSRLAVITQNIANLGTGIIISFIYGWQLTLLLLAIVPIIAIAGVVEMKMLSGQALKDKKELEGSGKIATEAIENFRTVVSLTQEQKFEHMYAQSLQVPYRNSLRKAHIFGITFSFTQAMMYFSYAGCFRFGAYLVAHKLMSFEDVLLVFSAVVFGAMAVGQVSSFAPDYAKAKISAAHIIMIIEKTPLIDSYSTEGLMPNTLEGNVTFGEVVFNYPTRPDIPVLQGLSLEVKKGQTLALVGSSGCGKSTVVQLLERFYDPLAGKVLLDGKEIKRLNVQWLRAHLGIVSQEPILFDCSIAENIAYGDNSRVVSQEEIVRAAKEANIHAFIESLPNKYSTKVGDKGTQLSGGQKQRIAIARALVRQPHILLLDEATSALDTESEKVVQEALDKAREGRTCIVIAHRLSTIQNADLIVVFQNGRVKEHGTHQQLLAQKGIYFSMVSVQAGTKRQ
Sequence of LTA4H epoxide hydrolase (P09960 whole entry): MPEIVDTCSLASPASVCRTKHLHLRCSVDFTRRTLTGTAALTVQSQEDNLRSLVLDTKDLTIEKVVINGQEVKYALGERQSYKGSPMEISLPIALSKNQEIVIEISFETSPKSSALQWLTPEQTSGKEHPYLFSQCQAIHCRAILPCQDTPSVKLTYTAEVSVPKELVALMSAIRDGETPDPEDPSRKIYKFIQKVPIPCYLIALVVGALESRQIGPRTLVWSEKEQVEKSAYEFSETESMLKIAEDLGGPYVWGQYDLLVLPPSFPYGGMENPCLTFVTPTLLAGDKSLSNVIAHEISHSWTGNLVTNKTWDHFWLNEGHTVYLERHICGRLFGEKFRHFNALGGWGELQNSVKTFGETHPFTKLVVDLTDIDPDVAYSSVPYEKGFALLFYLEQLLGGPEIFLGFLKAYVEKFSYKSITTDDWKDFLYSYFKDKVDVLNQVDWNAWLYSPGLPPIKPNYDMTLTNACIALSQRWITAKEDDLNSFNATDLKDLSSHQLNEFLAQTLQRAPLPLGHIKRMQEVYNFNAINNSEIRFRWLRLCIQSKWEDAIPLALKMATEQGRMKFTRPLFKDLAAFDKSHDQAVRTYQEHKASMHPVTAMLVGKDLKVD

With O=C(O)c1ccc(CN2C[C@@H]3C[C@H]2CN3Cc2ccc(Oc3ccc(-c4ncco4)cc3)cc2)cc1 [Acebilustat, 4-{[(1S,4S)-5-({4-[4-oxazol-2-yl-phenoxy]phenyl}methyl)-2,5-diazabicyclo[2.2.1]heptan-2-yl]methyl}benzoic acid] the sputum neutrophils decrease ([1]; 100 mg group) was 65%, the “sputum white blood cells decrease from Baseline” value ([1]; 100 mg group) was 60% and the sputum neutrophils decrease ([1]; all treated (50 to 100 mg)) was 34%. For the same molecule, the “sputum white blood cells decrease from Baseline” value ([1]; all treated subjects (50 or 100 mg)) was 31%, the IC50 ([2]; ex vivo stimulated human whole blood) was 64 nM and the IC50 ([2]; human whole blood tested ex vivo, approximate) was roughly 0.0308 µg/mL. The inhibition at 50 mg ([3]; 50 mg dose, human pharmacodynamic studies) was no less than 63%, the inhibition at 100 mg ([3]; 100 mg dose, human pharmacodynamic studies) was no less than 74% and the inhibition at 150 mg ([3]; 150 mg dose, human pharmacodynamic studies) was no less than 82%. It also gave an inhibition at 200 mg ([3]; 200 mg dose, human pharmacodynamic studies) of no less than 85%, an EC50 ([3]; Homo sapiens, in vivo, humans, estimated) of 0.093 µg/mL and an EC50 ([3]; human clinical PD studies, blood) of 190 nM. For the same molecule, the “EC50 for inhibition of LTB4 production” value ([3]; in vivo, humans, estimated) was 0.093 µg/mL, the “engagement of the pharmacologic mechanism in blood over 24-hour dosing interval” value ([3]; once-daily oral doses of 50 mg and above, phase 1 studies) was “significant engagement of the pharmacologic mechanism” and the half-life ([4]; CF patients) was 8 to 9 h. For the same molecule, the half-life ([4]; healthy volunteers) was 15 to 18 h, the Tmax ([4]; humans, fasting) was roughly 1.5 h and the Tmax ([4]; humans, with a high-fat meal) was 5 to 6 h. For the same molecule, the “exposures (Cmax, AUC), healthy volunteers versus CF patients” value ([4]; humans) was “did not vary appreciably”, the “time to steady state exposure” value ([4]; humans, repeated dosing) was 7 days and the “effect of larger body size and concomitant CFTR modulator therapies on clearance” value ([4]; population PK, Phase 2 CF trial) was “increase clearance”. The “accumulation and retention in pigmented tissues (uveal tract)” value ([5]; mass balance studies in animals) was “some potential for accumulation and retention”, the route of elimination ([5]; nonclinical) was “primarily via liver-bile-feces” and the “total drug excreted via kidneys” value ([5]; nonclinical) was “less than 3%”. The “reduction of neutrophil swarming” value [6] was 80%, the ophthalmologic changes ([7]; long term safety studies) was “no evidence for ophthalmologic changes” and the dose limiting toxicity ([7]; long-term animal safety studies across species) was “failure to gain weight associated with reduced food consumption”. For the same molecule, the phototoxic effects [8] was “no potential for phototoxic effects”, the IC50 [9] was 12 nM and the “drug interactions with substrates of P-gp” value [10] was “potential for drug interactions”. For the same molecule, the tolerability ([11]; CF patients, 50 mg and 100 mg per day for 48 weeks) was “generally well tolerated”, the “serious adverse reactions (SARs)” value ([11]; Phase 1 studies, healthy volunteers or subjects with CF) was “No SARs were reported” and the safety and tolerability ([11]; across six clinical studies, 5 to 200 mg) was “generally safe and well tolerated”. For the same molecule, the “circulating neutrophil counts or sputum microbiology” value ([11]; clinical studies) was “did not alter”, the “headache considered to be related to Acebilustat” value ([11]; clinical studies) was 8% and the tolerability ([11]; healthy volunteers, once-daily oral up to 200 mg/day for 14 days) was “well tolerated”. For the same molecule, the “SAR Distal intestinal obstruction syndrome, # of Subjects” value [12] was 1, the “SAR Distal intestinal obstruction syndrome, Frequency” value [12] was 0.5% and the “SAR Distal intestinal obstruction syndrome, Intensity Mild” value [12] was 0. For the same molecule, the “SAR Distal intestinal obstruction syndrome, Intensity Moderate” value [12] was 0, the “SAR Distal intestinal obstruction syndrome, Intensity Severe” value [12] was 1 and the “SAR Drug Induced Liver Injury, # of Subjects” value [12] was 1. The “SAR Drug Induced Liver Injury, Frequency” value [12] was 0.5%, the “SAR Drug Induced Liver Injury, Intensity Mild” value [12] was 0 and the “SAR Drug Induced Liver Injury, Intensity Moderate” value [12] was 0. For the same molecule, the “SAR Drug Induced Liver Injury, Intensity Severe” value [12] was 1, the “SAR Gastrointestinal disorders, # of Subjects” value [12] was 1 and the “SAR Gastrointestinal disorders, Frequency” value [12] was 0.5%. The “SAR Gastrointestinal disorders, Intensity Mild” value [12] was 0, the “SAR Gastrointestinal disorders, Intensity Moderate” value [12] was 0 and the “SAR Gastrointestinal disorders, Intensity Severe” value [12] was 1. The “SAR Hepatobiliary Disorders, # of Subjects” value [12] was 1, the “SAR Hepatobiliary Disorders, Frequency” value [12] was 0.5% and the “SAR Hepatobiliary Disorders, Intensity Mild” value [12] was 0. For the same molecule, the “SAR Hepatobiliary Disorders, Intensity Moderate” value [12] was 0, the “SAR Hepatobiliary Disorders, Intensity Severe” value [12] was 1 and the “SAR Infections and infestations, # of Subjects” value [12] was 1. The “SAR Infections and infestations, Frequency” value [12] was 0.5%, the “SAR Infections and infestations, Intensity Mild” value [12] was 0 and the “SAR Infections and infestations, Intensity Moderate” value [12] was 0. For the same molecule, the “SAR Infections and infestations, Intensity Severe” value [12] was 1, the “SAR Infective pulmonary exacerbation of cystic fibrosis, # of Subjects” value [12] was 1 and the “SAR Infective pulmonary exacerbation of cystic fibrosis, Frequency” value [12] was 0.5%. The “SAR Infective pulmonary exacerbation of cystic fibrosis, Intensity Mild” value [12] was 0, the “SAR Infective pulmonary exacerbation of cystic fibrosis, Intensity Moderate” value [12] was 0 and the “SAR Infective pulmonary exacerbation of cystic fibrosis, Intensity Severe” value [12] was 1.
